We go through 24 compounds from patent US7319098B2, “1,3-dioxoisoindole derivatives having selective antagonism of T-type calcium channel” (Korea Institute of Science and Technology, priority 2006, dated 2008).

The assay concerns the target T1, α1G T-type Ca2+ channels (Homo sapiens, UniProt O43497).
T1 construct: expressed in transfected cells; host or cells: HEK293 cells stably expressing α1G and Kir2.1
Briefly: Screening of activity against T-type calcium channel with FDSS6000 (fluorescence, KCl-induced [Ca2+]i increase). It is filed as cell-based. Conditions: HEK293 cells expressing α1G and Kir2.1, read-out: Inhibitory effect (%) of T-type calcium channel, Inhibition (%); for inhibition at 10 µM: NA: Not Active. As for the experimental part: Meanwhile, the antagonistic activity of the novel compound of Formula (1) herein against T-type calcium channel was tested as described below. The synthesized compounds were tested for the activity against T-type calcium channel with FDSS6000. Compounds with good activity were selected and IC50 values were exactly obtained by using electrophysiological whole cell patch clamp method. HEK293 cells which stably express both α1G and Kir2.1 subunits were grown in Dulbecco's modified Eagle's medium supplemented with 10% (v/v) fetal bovine serum, penicillin (100 U/mL), streptomycin (100 μg/mL), geneticin (500 μg/mL), and +puromycin (I μg/mL) at 37° C. in a humid atmosphere of 5% CO2 and 95% air. Cells were seeded into 96-well black wall clear bottom plates at a density of 4×10^4 cells/well and were used the next day for high-throughput screening (HTS) FDSS6000 assay. For FDSS6000 assay, cells were incubated for 60 min at room temperature with 5 μM fluo3/AM and 0.001% Pluronic F-127 in a HEPES-buffered solution composed of (in mM): 115 NaCl, 5.4 KCl, 0.8 MgCl2, 1.8 CaCl2, 20 HEPES, 13.8 glucose (pH 7.4). During the fluorescence-based FDSS6000 assay, cells in HEPES-buffered solution containing 10 mM CaCl2 were pretreated with a certain concentration of test compounds and then treated with high concentration of KCl ([…]). α1G T-type Ca^2+ channels were activated by using high concentration of KCl (70 mM) and the increase in [Ca^2+]i by KCl-induced depolarization was detected. During the whole procedure, cells were washed using the BIO-TEK 96-well washer. All data were collected and analyzed using FDSS6000 and related software (Hamamatsu, Japan). The IC50 results of examining the inhibitory effects of the compounds herein selected with FDSS6000 on the calcium influx through the T-type calcium channel are provided in TABLEs 1 and 2.

As usually defined, the inhibition is the drop in the measured response relative to a control, in per cent.

T1 sequence (O43497 whole entry): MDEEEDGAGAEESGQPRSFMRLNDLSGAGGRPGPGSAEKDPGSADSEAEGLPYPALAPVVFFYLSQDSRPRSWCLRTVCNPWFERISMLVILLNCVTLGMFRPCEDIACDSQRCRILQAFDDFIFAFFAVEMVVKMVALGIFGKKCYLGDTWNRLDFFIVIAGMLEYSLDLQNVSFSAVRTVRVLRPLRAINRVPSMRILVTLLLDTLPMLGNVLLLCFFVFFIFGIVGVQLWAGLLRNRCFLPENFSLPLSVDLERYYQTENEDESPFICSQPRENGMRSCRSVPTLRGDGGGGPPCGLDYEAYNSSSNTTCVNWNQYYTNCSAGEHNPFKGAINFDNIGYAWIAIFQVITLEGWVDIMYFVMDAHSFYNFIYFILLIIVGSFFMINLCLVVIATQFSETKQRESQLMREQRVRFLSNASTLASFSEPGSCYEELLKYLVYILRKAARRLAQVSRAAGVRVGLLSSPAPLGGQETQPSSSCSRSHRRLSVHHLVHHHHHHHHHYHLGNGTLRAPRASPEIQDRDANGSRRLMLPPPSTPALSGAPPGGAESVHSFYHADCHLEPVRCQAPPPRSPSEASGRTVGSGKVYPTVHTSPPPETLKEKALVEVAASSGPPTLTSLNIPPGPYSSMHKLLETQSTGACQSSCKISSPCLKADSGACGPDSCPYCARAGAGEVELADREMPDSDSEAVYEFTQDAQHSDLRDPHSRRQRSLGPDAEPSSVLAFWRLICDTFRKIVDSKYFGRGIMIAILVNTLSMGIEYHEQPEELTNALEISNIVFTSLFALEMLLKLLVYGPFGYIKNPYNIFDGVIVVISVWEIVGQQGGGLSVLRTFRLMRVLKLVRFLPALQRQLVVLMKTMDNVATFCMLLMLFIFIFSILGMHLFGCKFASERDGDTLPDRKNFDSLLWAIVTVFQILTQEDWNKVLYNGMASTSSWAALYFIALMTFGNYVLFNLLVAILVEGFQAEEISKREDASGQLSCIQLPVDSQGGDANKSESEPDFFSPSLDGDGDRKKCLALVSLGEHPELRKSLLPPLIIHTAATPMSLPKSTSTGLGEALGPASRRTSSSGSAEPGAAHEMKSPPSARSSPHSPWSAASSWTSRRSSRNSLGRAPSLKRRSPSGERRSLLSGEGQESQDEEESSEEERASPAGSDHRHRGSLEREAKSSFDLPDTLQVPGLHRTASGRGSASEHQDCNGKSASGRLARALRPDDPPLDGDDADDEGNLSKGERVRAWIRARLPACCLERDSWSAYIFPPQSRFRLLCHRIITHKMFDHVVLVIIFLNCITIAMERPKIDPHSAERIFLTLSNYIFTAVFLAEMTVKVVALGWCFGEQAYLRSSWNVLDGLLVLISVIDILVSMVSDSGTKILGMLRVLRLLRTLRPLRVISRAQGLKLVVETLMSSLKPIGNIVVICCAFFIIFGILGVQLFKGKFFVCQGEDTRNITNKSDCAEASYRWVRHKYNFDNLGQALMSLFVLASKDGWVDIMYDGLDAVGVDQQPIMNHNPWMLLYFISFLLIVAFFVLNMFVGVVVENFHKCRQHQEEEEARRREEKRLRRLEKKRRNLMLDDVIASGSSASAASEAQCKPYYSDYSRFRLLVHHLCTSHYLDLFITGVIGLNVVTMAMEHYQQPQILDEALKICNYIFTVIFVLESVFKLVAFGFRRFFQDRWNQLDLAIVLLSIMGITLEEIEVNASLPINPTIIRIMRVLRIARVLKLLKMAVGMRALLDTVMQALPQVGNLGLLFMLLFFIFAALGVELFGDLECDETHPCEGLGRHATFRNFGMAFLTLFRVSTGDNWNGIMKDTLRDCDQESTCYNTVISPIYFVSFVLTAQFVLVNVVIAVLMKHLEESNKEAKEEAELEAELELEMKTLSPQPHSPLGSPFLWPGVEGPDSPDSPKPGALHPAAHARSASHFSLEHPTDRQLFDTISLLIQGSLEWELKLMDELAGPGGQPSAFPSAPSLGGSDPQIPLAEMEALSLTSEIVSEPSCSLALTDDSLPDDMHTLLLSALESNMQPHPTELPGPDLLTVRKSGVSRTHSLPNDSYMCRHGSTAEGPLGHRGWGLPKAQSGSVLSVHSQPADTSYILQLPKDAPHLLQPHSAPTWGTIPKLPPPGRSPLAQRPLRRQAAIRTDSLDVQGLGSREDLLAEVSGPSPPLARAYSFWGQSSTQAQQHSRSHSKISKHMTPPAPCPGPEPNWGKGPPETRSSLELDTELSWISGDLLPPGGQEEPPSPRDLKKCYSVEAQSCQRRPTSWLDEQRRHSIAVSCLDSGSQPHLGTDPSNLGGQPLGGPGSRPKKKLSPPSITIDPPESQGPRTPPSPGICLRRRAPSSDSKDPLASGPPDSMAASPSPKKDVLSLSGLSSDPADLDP

For `Cc1ccccc1CN1C(=O)c2ccc(C(=O)NCCN3CCOCC3)cc2C1=O` [Compound 97, 4-(2-{[2-(2-methyl-benzyl)-1,3-dioxo-2,3-dihydro-1H-isoindol-5-carbonyl]-amino}-ethyl)-4-morpholinium chloride], the inhibition at 100 µM came to 69.8%.
As for `O=C(NCCN1CCCC1)c1ccc2c(c1)C(=O)N(Cc1cccc(F)c1)C2=O` [Compound 63, 1-(2-{[2-(3-fluoro-benzyl)-1,3-dioxo-2,3-dihydro-1H-isoindol-5-carbonyl]-amino}-ethyl)-pyrrolidinium chloride], the inhibition at 100 µM turned out to be 73.4%.
The same measure, in the same setting: the value for `O=C(NCCCN1CCCC1)c1ccc2c(c1)C(=O)N(c1ccccc1F)C2=O` [Compound 10, 1-(3-{[2-(2-fluoro-phenyl)-1,3-dioxo-2,3-dihydro-1H-isoindol-5-carbonyl]-amino}-propyl)-pyrrolidinium chloride] was 32.5%.
Turning to `O=C(NCCCN1CCCC1)c1ccc2c(c1)C(=O)N(Cc1ccccc1Cl)C2=O` [Compound 78, 1-(3-{[2-(2-chloro-benzyl)-1,3-dioxo-2,3-dihydro-1H-isoindol-5-carbonyl]-amino}-propyl)-pyrrolidinium chloride], the inhibition at 10 µM amounted to 25.4%.
Turning to `COc1ccccc1CN1C(=O)c2ccc(C(=O)NCCN3CCCC3)cc2C1=O` [Compound 113, 1-(2-{[2-(2-methoxy-benzyl)-1,3-dioxo-2,3-dihydro-1H-isoindol-5-carbonyl]-amino}-ethyl)-pyrrolidinium chloride], the inhibition at 100 µM is 55.1%.
The same measure, in the same setting: the value for `COc1ccccc1CN1C(=O)c2ccc(C(=O)NCCCN3CCCC3)cc2C1=O` [Compound 114, 1-(3-{[2-(2-methoxy-benzyl)-1,3-dioxo-2,3-dihydro-1H-isoindol-5-carbonyl]-amino}-propyl)-pyrrolidinium chloride] was 53%.
In the case of `O=C(NCCN1CCCCC1)c1ccc2c(c1)C(=O)N(c1cccc(Cl)c1)C2=O` [Compound 26, 1-(2-{[2-(3-chloro-phenyl)-1,3-dioxo-2,3-dihydro-1H isoindol-5-carbonyl]-amino}-ethyl)-piperidinium chloride], the inhibition at 100 µM stood at 52.7%.
Same read-out and setting: in the case of `COc1ccccc1CN1C(=O)c2ccc(C(=O)NCCCN3CCOCC3)cc2C1=O` [Compound 116, 4-(3-{[2-(2-methoxy-benzyl)-1,3-dioxo-2,3-dihydro-1H-isoindol-5-carbonyl]-amino}-propyl)-4-morpholinium chloride] it was 48.8%.
As for `O=C(NCCN1CCCC1)c1ccc2c(c1)C(=O)N(Cc1ccc(Cl)cc1)C2=O` [Compound 89, 1-(2-{[2-(4-chloro-benzyl)-1,3-dioxo-2,3-dihydro-1H-isoindol-5-carbonyl]-amino}-ethyl)-pyrrolidinium chloride], the inhibition at 10 µM was determined as 29.8%.
On to `O=C(NCCN1CCOCC1)c1ccc2c(c1)C(=O)N(c1ccccc1F)C2=O` [Compound 11, 4-(2-{[2-(2-fluoro-phenyl)-1,3-dioxo-2,3-dihydro-1H-isoindol-5-carbonyl]-amino}-ethyl)-4-morpholinium chloride], for which the inhibition at 100 µM is 22.7%.
In the case of `Cc1ccc(CN2C(=O)c3ccc(C(=O)NCCCN4CCCC4)cc3C2=O)cc1` [Compound 108, 1-(3-{[2-(4-methyl-benzyl)-1,3-dioxo-2,3-dihydro-1H isoindol-5-carbonyl]-amino}-propyl)-pyrrolidinium chloride], the inhibition at 10 µM came to 15.6%.
As for `O=C(NCCCN1CCOCC1)c1ccc2c(c1)C(=O)N(c1ccc(F)cc1)C2=O` [Compound 24, 4-(3-{[2-(4-fluoro-phenyl)-1,3-dioxo-2,3-dihydro-1H-isoindol-5-carbonyl]-amino}-propyl)-4-morpholinium chloride], the inhibition at 100 µM was 21.4%.
`CC1CCCCN1CCCNC(=O)c1ccc2c(c1)C(=O)N(Cc1ccccc1F)C2=O` (stereo not drawn) [Compound 56, 1-(3-{[2-(2-fluoro-benzyl)-1,3-dioxo-2,3-dihydro-1H-isoindol-5-carbonyl]-amino}-propyl)-2-methyl-piperidinium chloride]: the inhibition at 100 µM turned out to be 78.8%.
Consider `O=C(NCCN1CCCCC1)c1ccc2c(c1)C(=O)N(c1ccc(Cl)cc1)C2=O` [Compound 27, 1-(2-{[2-(4-chloro-phenyl)-1,3-dioxo-2,3-dihydro-1H-isoindol-5-carbonyl]-amino}-ethyl)-piperidinium chloride], for which the inhibition at 100 µM turned out to be 44.5%.
Take `O=C(NCCCN1CCCC1)c1ccc2c(c1)C(=O)N(Cc1ccccc1F)C2=O` [Compound 58, 1-(3-{[2-(2-fluoro-benzyl)-1,3-dioxo-2,3-dihydro-1H-isoindol-5-carbonyl]-amino}-propyl)-pyrrolidinium chloride]: the inhibition at 100 µM was determined as 70.6%.
Consider `COc1ccc(CN2C(=O)c3ccc(C(=O)NCCCN4CCCCC4C)cc3C2=O)cc1` (stereo not drawn) [Compound 124, 1-(3-{[2-(4-methoxy-benzyl)-1,3-dioxo-2,3-dihydro-1H-isoindol-5-carbonyl]-amino}-propyl)-2-methyl-piperidinium chloride], for which the inhibition at 100 µM stood at 77.7%.
For the compound `O=C(NCCN1CCCCC1)c1ccc2c(c1)C(=O)N(Cc1cccc(Cl)c1)C2=O` [Compound 81, 1-(2-{[2-(3-chloro-benzyl)-1,3-dioxo-2,3-dihydro-1H-isoindol-5-carbonyl]-amino}-ethyl)-piperidinium chloride], the inhibition at 10 µM is 42.9%.
For the compound `COc1ccccc1CN1C(=O)c2ccc(C(=O)NCCN3CCCCC3)cc2C1=O` [Compound 111, 1-(2-{[2-(2-methoxy-benzyl)-1,3-dioxo-2,3-dihydro-1H-isoindol-5-carbonyl]-amino}-ethyl)-piperidinium chloride], the inhibition at 100 µM came to 69.5%.
`O=C(NCCCN1CCOCC1)c1ccc2c(c1)C(=O)N(Cc1ccc(Cl)cc1)C2=O` [Compound 92, 4-(3-{[2-(4-chloro-benzyl)-1,3-dioxo-2,3-dihydro-1H-isoindol-5-carbonyl]-amino}-propyl)-4-morpholinium chloride]: the inhibition at 10 µM was determined as 29.9%.
Take `Cc1cccc(CN2C(=O)c3ccc(C(=O)NCCN4CCCC4)cc3C2=O)c1` [Compound 101, 1-(2-{[2-(3-methyl-benzyl)-1,3-dioxo-2,3-dihydro-1H-isoindol-5-carbonyl]-amino}-ethyl)-pyrrolidinium chloride]: the inhibition at 10 µM was 27.2%.
Consider `O=C(NCCN1CCOCC1)c1ccc2c(c1)C(=O)N(Cc1cccc(Cl)c1)C2=O` [Compound 85, 4-(2-{[2-(3-chloro-benzyl)-1,3-dioxo-2,3-dihydro-1H-isoindol-5-carbonyl]-amino}-ethyl)-4-morpholinium chloride], for which the inhibition at 10 µM was determined as 25.3%.
In the case of `CC1CCCCN1CCCNC(=O)c1ccc2c(c1)C(=O)N(c1ccc(F)cc1)C2=O` (stereo not drawn) [Compound 20, 1-(3-{[2-(4-fluoro-phenyl)-1,3-dioxo-2,3-dihydro-1H-isoindol-5-carbonyl]-amino}-propyl)-2-methyl-piperidinium chloride], the inhibition at 100 µM was determined as 44.7%.
Turning to `Cc1cccc(N2C(=O)c3ccc(C(=O)NCCN4CCCCC4)cc3C2=O)c1` [Compound 33, 1-{2-[(1,3-dioxo-2-m-tolyl-2,3-dihydro-1H-isoindol-5-carbonyl)-amino]-ethyl}-piperidinium chloride], the inhibition at 100 µM worked out at 64.5%.
Same read-out and setting: in the case of `O=C(NCCCN1CCOCC1)c1ccc2c(c1)C(=O)N(Cc1cccc(F)c1)C2=O` [Compound 66, 4-(3-{[2-(3-fluoro-benzyl)-1,3-dioxo-2,3-dihydro-1H-isoindol-5-carbonyl]-amino}-propyl)-4-morpholinium chloride] it was 59.8%.
